The values that follow come from patent US20170253607A1, “LONG-ACTING HIV PROTEASE INHIBITOR” (Shionogi & Co., Ltd., priority 2014, published 2017).

For orientation: IC50 means the point on the concentration scale where inhibition reaches its midpoint.

This assay deals with HIV-1 PR (Human immunodeficiency virus type 1 group M subtype B, UniProt P04585). Briefly: HIV-protease inhibitory activity assay (FRET peptide substrate). It is filed as biochemical. The note with it: Test Example 1. Summed up: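 HIV-1 PR (0.83 ng) preincubated with compounds 20 min at room temperature in 0.1 mol/L NaAc, 0.5 mol/L NaCl, 1 mmol/L EDTA, 1 mmol/L DTT, 0.05% Tween 20, pH 4.8. Cleavage of HiLyte Fluor 488/QXL 520 FRET peptide (2 μmol/L) read after 60 minutes at 485/535 nm; IC50 from four-parameter logistic fit.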
Compound `COc1ccc(S(=O)(=O)N(CC(C)C)CC(O)C(Cc2ccc(N(Cc3ccccc3-c3sc4c(c3C(=O)O)CC(C)(C)CC4)C(C)=O)cc2)NC(=O)OC2COC3(C)OCCC23)cc1` (stereo not drawn) [Compound I-339] came in with a half-inhibitory concentration (IC50) of 1.83 nM.

In turn, `COc1ccc(S(=O)(=O)N(CC(C)C)CC(O)C(Cc2ccc(NCC3(c4ccc(-c5sc6c(c5C(=O)O)CC(C)(C)CC6)cc4)CCCC3)cc2)NC(=O)OC2COC3(C)OCCC23)cc1` (stereo not drawn) [Compound I-340] registered an IC50 of 5.6 nM.

As for `COc1ccc(S(=O)(=O)N(CC(C)C)CC(O)C(Cc2ccc(CN(C)C3CCCCC3c3sc4c(c3C(=O)O)CC(C)(C)CC4)cc2)NC(=O)OC2COC3(C)OCCC23)cc1` (stereo not drawn) [Compound I-341], the IC50 amounted to 1.89 nM.

`COc1ccc(S(=O)(=O)N(CC(C)C)CC(O)C(Cc2ccc(CN(C)C3CCCCC3c3sc4c(c3C(=O)O)CC(C)(C)CC4)cc2)NC(=O)OC2COC3(C)OCCC23)cc1` (stereo not drawn) [Compound I-342]: the midpoint of inhibition, the IC50, lay at 2.06 nM. This IC50 and that of the compound before are within 1.5-fold of each other.

Take `COc1ccc(S(=O)(=O)N(CC(C)C)CC(O)C(Cc2ccc(OCc3ccccc3-c3c(OCc4ccccc4)noc3C(=O)O)cc2)NC(=O)OC2COC3(C)OCCC23)cc1` (stereo not drawn) [Compound I-344]: the IC50 was 2.83 nM.

The compound `COc1ccc(S(=O)(=O)N(CC(C)C)CC(O)C(Cc2ccc(CN(C)C3CCCCC3c3sc4c(c3C(=O)O)CC(C)(C)CC4)cc2)NC(=O)OC2COC3(C)OCCC23)cc1` (stereo not drawn) [Compound I-345] had an IC50 of 1.82 nM.

Compound `COc1ccc(S(=O)(=O)N(CC(C)C)CC(O)C(Cc2ccc(N3CCC(Oc4ccc(-c5sc6c(c5C(=O)O)CC(C)(C)CC6)cc4)C3)cc2)NC(=O)OC2COC3(C)OCCC23)cc1` (stereo not drawn) [Compound I-350] yielded an IC50 of 5.32 nM.

`COc1ccc(S(=O)(=O)N(CC(C)C)CC(O)C(Cc2ccc(OC3CCN(c4ncccc4-c4sc5c(c4C(=O)O)CC(C)(C)CC5)C3)cc2)NC(=O)OC2COC3(C)OCCC23)cc1` (stereo not drawn) [Compound I-355] came in with an IC50 of 2.35 nM.

Regarding `COc1ccc(S(=O)(=O)N(CC(C)C)CC(O)C(Cc2ccc(NCc3ccc(-c4c(C(=O)O)sc5c4CC(C)(C)CC5)cc3)cc2)NC(=O)OC2COC3(C)OCCC23)cc1` (stereo not drawn) [Compound I-356], the concentration for half-maximal inhibition (IC50) amounted to 3.3 nM.

Compound `COc1ccc(S(=O)(=O)N(CC(C)C)CC(O)C(Cc2ccc(N(C)CC3CCCCC3c3sc4c(c3C(=O)O)CC(C)(C)CC4)cc2)NC(=O)OC2COC3(C)OCCC23)cc1` (stereo not drawn) [Compound I-358] showed an IC50 of 3.89 nM.

Turning to `COc1ccc(S(=O)(=O)N(CC(C)C)CC(O)C(Cc2ccc(N(C)CC3CCCCC3c3sc4c(c3C(=O)O)CC(C)(C)CC4)cc2)NC(=O)OC2COC3(C)OCCC23)cc1` (stereo not drawn) [Compound I-359], the IC50 came out at 3.77 nM.

Compound `COc1ccc(S(=O)(=O)N(CC(C)C)CC(O)C(Cc2ccc(OC3CN(c4cccc(-c5sc6c(c5C(=O)O)CC(C)(C)CC6)c4)C3)cc2)NC(=O)OC2COC3(C)OCCC23)cc1` (stereo not drawn) [Compound I-360] came in with an IC50 of 4.54 nM.

Consider `COc1ccc(S(=O)(=O)N(CC(C)C)CC(O)C(Cc2ccc(OC3CN(c4ccc(-c5sc6c(c5C(=O)O)CC(C)(C)CC6)cc4)C3)cc2)NC(=O)OC2COC3(C)OCCC23)cc1` (stereo not drawn) [Compound I-361], for which the IC50 was 6.22 nM.

`COc1ccc(S(=O)(=O)N(CC(C)C)CC(O)C(Cc2ccc(OC3CC(N(C)c4ccccc4-c4sc5c(c4C(=O)O)CC(C)(C)CC5)C3)cc2)NC(=O)OC2COC3(C)OCCC23)cc1` (stereo not drawn) [Compound I-364] displayed an IC50 of 5.39 nM.

`COc1ccc(S(=O)(=O)N(CC2CCCC2)CC(O)C(Cc2ccc(OCCn3nc4c(c3C(=O)O)CC(C)(C)CC4)cc2)NC(=O)OC2COC3(C)OCCC23)cc1` (stereo not drawn) [Compound I-366] came in with an IC50 of 2.72 nM.

Take `COc1ccc(S(=O)(=O)N(CC(C)C)CC(O)C(Cc2ccc(NCc3ccccc3-c3sc4c(c3C(=O)O)C(=O)CCC4)cc2)NC(=O)OC2COC3(C)OCCC23)cc1` (stereo not drawn) [Compound I-367]: 2.61 nM corresponded to half-maximal inhibition (IC50).

`COc1ccc(S(=O)(=O)N(CC(C)C)CC(O)C(Cc2ccc(NCc3ccccc3-c3nc4n(c3C(=O)O)CCCC4)cc2)NC(=O)OC2COC3(C)OCCC23)cc1` (stereo not drawn) [Compound I-368] gave an IC50 of 2.11 nM.

With `COc1ccc(S(=O)(=O)N(CC(C)C)CC(O)C(Cc2ccc(NCC3(c4ccc(-c5sc6c(c5C(=O)O)CC(C)(C)CC6)cc4)CCCCC3)cc2)NC(=O)OC2COC3(C)OCCC23)cc1` (stereo not drawn) [Compound I-369], inhibition was half-maximal at 15.8 nM (IC50).

In turn, `COc1ccc(S(=O)(=O)N(CC(C)C)CC(O)C(Cc2ccc(N3CC(Oc4ccc(-c5sc6c(c5C(=O)O)CC(C)(C)CC6)cc4)C3)cc2)NC(=O)OC2COC3(C)OCCC23)cc1` (stereo not drawn) [Compound I-370] yielded an IC50 of 5.02 nM.

In the case of `COc1ccc(S(=O)(=O)N(CC(C)C)CC(O)C(Cc2ccc(N(C)CC3CCCCC3c3sc4c(c3C(=O)O)CC(C)(C)CC4)cc2)NC(=O)OC2COC3(C)OCCC23)cc1` (stereo not drawn) [Compound I-375], the IC50 is 3.87 nM.

Take `CCN(C(=O)Nc1ccccc1-c1sc2c(c1C(=O)O)CC(C)(C)CC2)c1ccc(CC(NC(=O)OC2COC3(C)OCCC23)C(O)CN(CC(C)C)S(=O)(=O)c2ccc(OC)cc2)cc1` (stereo not drawn) [Compound I-377]: the IC50 was 5.4 nM. This IC50 and that of the compound before are within 1.5-fold of each other.

In turn, `COc1ccc(S(=O)(=O)N(CC(C)C)CC(O)C(Cc2ccc(NCC3=C(c4sc5c(c4C(=O)O)CC(C)(C)CC5)CCC3)cc2)NC(=O)OC2COC3(C)OCCC23)cc1` (stereo not drawn) [Compound I-381] displayed an IC50 of 4.69 nM. This IC50 and that of the compound before are within 1.5-fold of each other.

With `COc1ccc(S(=O)(=O)N(CC(C)C)CC(O)C(Cc2ccc(OC3CC(N(C)c4ccccc4-c4sc5c(c4C(=O)O)CC(C)(C)CC5)C3)cc2)NC(=O)OC2COC3(C)OCCC23)cc1` (stereo not drawn) [Compound I-382], the IC50 worked out at 7.26 nM.

The compound `COc1ccc(S(=O)(=O)N(CC(C)C)CC(O)C(Cc2ccc(NC(C)c3ccccc3-c3sc4c(c3C(=O)O)CC(C)(C)CC4)cc2)NC(=O)OC2COC3(C)OCCC23)cc1` (stereo not drawn) [Compound I-383] came in with an IC50 of 6.47 nM.

In the case of `COc1ccc(S(=O)(=O)N(CC(C)C)CC(O)C(Cc2ccc(OCC3=C(c4sc5c(c4C(=O)O)CC(C)(C)CC5)COC3)cc2)NC(=O)OC2COC3(C)OCCC23)cc1` (stereo not drawn) [Compound I-385], the IC50 came to 1.25 nM.

In the case of `COc1ccc(S(=O)(=O)N(CC(C)C)CC(O)C(Cc2ccc(CN3CCc4c(cccc4-c4sc5c(c4C(=O)O)CC(C)(C)CC5)C3)cc2)NC(=O)OC2COC3(C)OCCC23)cc1` (stereo not drawn) [Compound I-388], it took 1.53 nM to reach half-maximal inhibition (IC50).

Turning to `COc1ccc(S(=O)(=O)N(CC(C)C)CC(O)C(Cc2ccc(N3CCN(c4ccccc4-c4sc5c(c4C(=O)O)CC(C)(C)CC5)C3=O)cc2)NC(=O)OC2COC3(C)OCCC23)cc1` (stereo not drawn) [Compound I-390], it took 1.84 nM to reach half-maximal inhibition (IC50).

In turn, `COc1ccc(S(=O)(=O)N(CC(C)C)CC(O)C(Cc2ccc(NCc3ccccc3-c3ccc4c(c3C(=O)O)CC(C)(C)CC4)cc2)NC(=O)OC2COC3(C)OCCC23)cc1` (stereo not drawn) [Compound I-392] came in with an IC50 of 2.4 nM. This IC50 and that of the compound before are within 1.5-fold of each other.

With `COc1ccc(S(=O)(=O)N(CC(C)C)CC(O)C(Cc2ccc(NCC3(c4cccc(-c5sc6c(c5C(=O)O)CC(C)(C)CC6)c4)CCCC3)cc2)NC(=O)OC2COC3(C)OCCC23)cc1` (stereo not drawn) [Compound I-393], the IC50 is 14.5 nM. Against the preceding compound, the IC50 is about 6-fold higher.

Regarding `COc1ccc(S(=O)(=O)N(CC(C)C)CC(O)C(Cc2ccc(OCC3COCC3c3sc4c(c3C(=O)O)CC(C)(C)CC4)cc2)NC(=O)OC2COC3(C)OCCC23)cc1` (stereo not drawn) [Compound I-394], it took 1.64 nM to reach half-maximal inhibition (IC50).

Turning to `COc1ccc(S(=O)(=O)N(CC(C)C)CC(O)C(Cc2ccc(OCC3COCC3c3sc4c(c3C(=O)O)CC(C)(C)CC4)cc2)NC(=O)OC2COC3(C)OCCC23)cc1` (stereo not drawn) [Compound I-395], the IC50 came to 1.86 nM. This IC50 and that of the compound before are within 1.5-fold of each other.

Turning to `COc1ccc(S(=O)(=O)N(CC(C)C)CC(O)C(Cc2ccc(NCc3ccccc3C(=O)Nc3sc4c(c3C(=O)O)CC(C)(C)CC4)cc2)NC(=O)OC2COC3(C)OCCC23)cc1` (stereo not drawn) [Compound I-397], the IC50 turned out to be 2.64 nM.

In turn, `COc1ccc(S(=O)(=O)N(CC(C)C)CC(O)C(Cc2ccc(N(C)CC3COCCC3c3sc4c(c3C(=O)O)CC(C)(C)CC4)cc2)NC(=O)OC2COC3(C)OCCC23)cc1` (stereo not drawn) [Compound I-400] yielded a half-maximal inhibitory concentration (IC50) of 1.69 nM.

On to `COc1ccc(S(=O)(=O)N(CC(C)C)CC(O)C(Cc2ccc(N(C)CC3COCCC3c3sc4c(c3C(=O)O)CC(C)(C)CC4)cc2)NC(=O)OC2COC3(C)OCCC23)cc1` (stereo not drawn) [Compound I-401], for which half-maximal inhibition (IC50) required 1.77 nM.

The compound `COc1ccc(S(=O)(=O)N(CC(C)C)CC(O)C(Cc2ccc(NCC3=C(c4sc5c(c4C(=O)O)CC(C)(C)CC5)CN(C(=O)O)C3)cc2)NC(=O)OC2COC3(C)OCCC23)cc1` (stereo not drawn) [Compound I-402] registered an IC50 of 1.89 nM.

The compound `COc1ccc(S(=O)(=O)N(CC(C)C)CC(O)C(Cc2ccc(NCC3=C(c4sc5c(c4C(=O)O)CC(C)(C)CC5)CCN(C)C3)cc2)NC(=O)OC2COC3(C)OCCC23)cc1` (stereo not drawn) [Compound I-403] gave an IC50 of 2.3 nM.

`COc1ccc(S(=O)(=O)N(CC(C)C)CC(O)C(Cc2ccc(N(C)C3Cc4cccc(-c5sc6c(c5C(=O)O)CC(C)(C)CC6)c4C3)cc2)NC(=O)OC2COC3(C)OCCC23)cc1` (stereo not drawn) [Compound I-404] yielded an IC50 of 1.88 nM.

Consider `COC(=O)c1ccc(CNc2ccc(CC(NC(=O)OC3COC4(C)OCCC34)C(O)CN(CC(C)C)S(=O)(=O)c3ccc(OC)cc3)cc2)c(-c2sc3c(c2C(=O)O)CC(C)(C)CC3)c1` (stereo not drawn) [Compound I-408], for which it took 1.8 nM to reach half-maximal inhibition (IC50).

`COc1ccc(S(=O)(=O)N(CC(C)C)CC(O)C(Cc2ccc(NCc3ccccc3-c3c(C(=O)O)c4ccccc4n3C)cc2)NC(=O)OC2COC3(C)OCCC23)cc1` (stereo not drawn) [Compound I-411]: it took 1.3 nM to reach half-maximal inhibition (IC50).

Compound `COc1ccc(S(=O)(=O)N(CC(C)C)CC(O)C(Cc2ccc(N(C)Cc3ccccc3-c3c(C(=O)O)c4ccccc4n3C)cc2)NC(=O)OC2COC3(C)OCCC23)cc1` (stereo not drawn) [Compound I-412] had an IC50 of 1.51 nM.

Take `COc1ccc(S(=O)(=O)N(CC(C)C)CC(O)C(Cc2ccc(NCc3ccc(C(=O)O)cc3-c3sc4c(c3C(=O)O)CC(C)(C)CC4)cc2)NC(=O)OC2COC3(C)OCCC23)cc1` (stereo not drawn) [Compound I-413]: 1.84 nM corresponded to half-maximal inhibition (IC50).

As for `CNC(=O)c1ccc(CNc2ccc(CC(NC(=O)OC3COC4(C)OCCC34)C(O)CN(CC(C)C)S(=O)(=O)c3ccc(OC)cc3)cc2)c(-c2sc3c(c2C(=O)O)CC(C)(C)CC3)c1` (stereo not drawn) [Compound I-416], the IC50 amounted to 1.63 nM.
